{"source": "patent US8592621B2", "about": "“Precursor compounds of sweet taste receptor antagonists for the prevention or treatment of disease” (Symrise AG, priority 2009, dated 2013)", "key": {"[1]": {"system": "sweet taste impression of sweet tasting substances", "test": "Influence on the sensorial quality of sweet substances (expert panel rating of sweet taste impression)", "type": "in vivo", "conditions": "for Sweet taste impression (1-10) Sample (B): scale 1 [not sweet] to 10 [extremely sweet]; for Change in sweet taste impression [%]: sample B vs sample A", "from_the_text": "In order to quantify the influence of inventive compounds of formula (I) on the sensorial characteristics of various sweet tasting substances, in each case a sample (A) (sweet tasting substance) and a sample (B) (sweet tasting substance+compound of formula (I) or lactisole (as standard)) were sensorially assessed by a group of experts and rated according to their sweet taste impression on a scale of 1 [not sweet] to 10 [extremely sweet]. Then in each case from the average values of the assessments of samples (A) and (B) the change (in %) in the sweet taste impression was calculated."}, "[2]": {"target": "T1, T1R2/T1R3 receptors (Homo sapiens, UniProt Q7RTX0+Q8TE23)", "T1 construct": "expressed in transfected cells; TAS1R2 from pCDNA5-FRT, TAS1R3 from pCDNA3-TO (tetracycline-induced), G15-Gi3 from pIRESpuro3", "T1 sequence (Q8TE23 20-839)": "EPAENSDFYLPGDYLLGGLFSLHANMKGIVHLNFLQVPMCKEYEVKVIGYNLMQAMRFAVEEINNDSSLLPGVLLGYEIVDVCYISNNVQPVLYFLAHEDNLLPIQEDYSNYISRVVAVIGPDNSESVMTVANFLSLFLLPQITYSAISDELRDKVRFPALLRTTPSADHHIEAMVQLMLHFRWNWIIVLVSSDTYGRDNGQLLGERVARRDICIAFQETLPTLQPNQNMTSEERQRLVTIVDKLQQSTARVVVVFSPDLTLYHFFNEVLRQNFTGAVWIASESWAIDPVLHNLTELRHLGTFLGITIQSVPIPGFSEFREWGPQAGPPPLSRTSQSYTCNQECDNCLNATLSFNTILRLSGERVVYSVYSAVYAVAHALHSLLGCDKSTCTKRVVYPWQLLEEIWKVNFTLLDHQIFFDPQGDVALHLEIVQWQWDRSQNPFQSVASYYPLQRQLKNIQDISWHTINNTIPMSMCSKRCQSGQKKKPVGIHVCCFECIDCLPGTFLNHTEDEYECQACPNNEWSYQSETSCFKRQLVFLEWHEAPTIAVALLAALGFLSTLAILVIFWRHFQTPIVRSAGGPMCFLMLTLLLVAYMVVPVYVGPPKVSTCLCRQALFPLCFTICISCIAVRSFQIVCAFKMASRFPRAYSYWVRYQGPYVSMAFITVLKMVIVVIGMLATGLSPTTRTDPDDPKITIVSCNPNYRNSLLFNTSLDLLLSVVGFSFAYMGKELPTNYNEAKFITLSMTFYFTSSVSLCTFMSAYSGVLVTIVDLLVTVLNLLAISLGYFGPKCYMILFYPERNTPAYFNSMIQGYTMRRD", "T1 sequence (Q7RTX0 21-852)": "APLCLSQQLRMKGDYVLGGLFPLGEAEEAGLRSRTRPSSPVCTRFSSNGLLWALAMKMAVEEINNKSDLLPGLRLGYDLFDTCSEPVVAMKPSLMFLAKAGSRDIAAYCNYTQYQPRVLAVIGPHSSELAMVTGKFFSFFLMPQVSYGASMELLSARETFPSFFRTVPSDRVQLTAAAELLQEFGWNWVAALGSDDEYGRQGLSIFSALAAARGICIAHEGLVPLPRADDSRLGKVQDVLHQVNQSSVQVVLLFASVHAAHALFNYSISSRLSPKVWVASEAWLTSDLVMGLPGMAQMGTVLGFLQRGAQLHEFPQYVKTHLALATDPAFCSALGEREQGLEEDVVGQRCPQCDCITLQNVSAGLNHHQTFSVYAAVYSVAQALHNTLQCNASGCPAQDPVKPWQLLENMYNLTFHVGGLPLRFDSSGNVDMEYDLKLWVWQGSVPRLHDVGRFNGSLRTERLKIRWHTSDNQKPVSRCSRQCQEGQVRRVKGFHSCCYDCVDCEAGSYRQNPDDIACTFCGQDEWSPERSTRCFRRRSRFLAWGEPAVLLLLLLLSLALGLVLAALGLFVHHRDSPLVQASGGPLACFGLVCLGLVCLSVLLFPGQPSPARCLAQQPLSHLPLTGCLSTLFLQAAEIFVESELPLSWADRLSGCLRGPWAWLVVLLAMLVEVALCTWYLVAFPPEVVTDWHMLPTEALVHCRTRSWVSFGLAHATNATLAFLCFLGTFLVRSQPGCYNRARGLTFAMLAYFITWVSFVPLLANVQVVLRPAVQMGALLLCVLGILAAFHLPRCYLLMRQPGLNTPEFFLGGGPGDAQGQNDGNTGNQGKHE", "test": "Calcium mobilization (FLIPR) in HEK293TREX cells expressing human TAS1R2/TAS1R3", "type": "cell-based", "conditions": "in the presence of naringin dihydrochalcone; FIG. 3"}, "[3]": {"target": "T1, T1R2/T1R3 receptors", "test": "Activating or inhibiting effect on T1R2/T1R3 receptors according to concentration (same process as application example 3)", "type": "cell-based", "conditions": "FIG. 4", "from_the_text": "A stable cell line (HEK293TREX) extracted from human embryonic renal cells was manufactured with the help of the plasmid pIRESpuro3, coding for the G protein chimeras G15-Gi3. A further plasmid (pCDNA5-FRT), coding for the human TAS1R2 sequence, was also used. In this way it was possible to integrate the gene in a defined chromosomal region. The human TAS1R3 subunit of the human sweet taste receptor was cloned in pCDNA3-TO. This allowed the induction of the target gene using tetracycline. The stable, transfixed cell line was cultivated in high glucose content DMEM without tetracycline. For the measurements the cells were sown and cultivated (37° C., 5% CO2) in polylysine-coated 96-well titrimetric places (black with transparent bases) until they achieved an 80% confluence. […] The calcium mobilization by receptor stimulation by the test substances was measured in an automated fluorometer (fluorometric imaging plate reader FLIPR, Molecular Devices, Sunnyvale, Calif.). The test substances were measured in a concentration of 1 mmol/l or 0.1 mmol/l in C1 solution. All data were determined in two independent experiments, which were each repeated three times. The calcium signals obtained were corrected for the proportion of the mock cells and (using the formula ΔF/F=(F−F0)/F0) normalized on the starting intensity of the fluorescence prior to addition of the test substances (F0)."}, "[4]": {"system": "sweet taste intensity (in the oral cavity)", "test": "Taste tests by a sensory panel (sweet taste intensity in the oral cavity)", "type": "in vivo", "conditions": "tasting by sensory panel", "from_the_text": "From this it can be concluded that during the tasting of the compounds of formulas (1) to (4) in the oral cavity no lactisole was released."}, "[5]": {"conditions": "Sucrose 5% + test substance 10 mg/l"}, "[6]": {"conditions": "Sucrose 5%, test substance 10 mg/l"}}, "data": [{"smiles": "CCCCCCOC(=O)C(C)Oc1ccc(OC)cc1", "note": "(stereo not drawn) [Compound of formula (1), 2-(4-methoxyphenoxy)-propanoic acid hexyl ester]", "values": [{"measurement": "Sweet taste impression (1-10) Sample (B)", "setting": "[1]; Sucrose 5% + test substance 14 mg/l", "value": "5.0 ± 1"}, {"measurement": "Change in sweet taste impression [%]", "setting": "[1]; Sucrose 5%, test substance 14 mg/l", "value": "−10", "unit": "%"}, {"measurement": "Antagonistic effect (inhibition) on the sweet taste receptor", "setting": "[2]", "value": "do not themselves demonstrate any antagonistic effect"}]}, {"smiles": "COc1ccc(OC(C)C(=O)OCC(COC(=O)C(C)Oc2ccc(OC)cc2)OC(=O)C(C)Oc2ccc(OC)cc2)cc1", "note": "(stereo not drawn) [Compound of formula (2), 2-(4-methoxyphenoxy)propanoic acid-2,3-bis-[2-(4-methoxyphenoxy)-propionyloxy]-propyl ester]", "values": [{"measurement": "Sweet taste impression (1-10) Sample (B)", "setting": "[1]; Naringin dihydrochalcone 50 mg/l + test substance 10 mg/l", "value": "5.6 ± 2.1"}, {"measurement": "Change in sweet taste impression [%]", "setting": "[1]; Naringin dihydrochalcone 50 mg/l, test substance 10 mg/l", "value": 9, "unit": "%"}, {"measurement": "Sweet taste impression (1-10) Sample (B)", "setting": "[1]; [5]", "value": "5.6 ± 1.5"}, {"measurement": "Change in sweet taste impression [%]", "setting": "[1]; [6]", "value": 3, "unit": "%"}, {"measurement": "Antagonistic effect (inhibition) on the sweet taste receptor", "setting": "[2]", "value": "do not themselves demonstrate any antagonistic effect"}, {"measurement": "Antagonistic effect on the sweet taste receptor", "setting": "[3]; in the presence of aspartame or sucrose", "value": "does not demonstrate any antagonistic effect"}, {"measurement": "Dose-effect curve for aspartame or saccharose", "setting": "[3]; in the presence of the compound", "value": "not altered"}]}, {"smiles": "CCCCOC(=O)C(C)Oc1ccc(OC)cc1", "note": "(stereo not drawn) [Compound of formula (4), 2-(4-methoxyphenoxy)propanoic acid butyl ester]", "values": [{"measurement": "Sweet taste impression (1-10) Sample (B)", "setting": "[1]; Sucrose 5% + test substance 16 mg/l", "value": "5.6 ± 1.5"}, {"measurement": "Change in sweet taste impression [%]", "setting": "[1]; Sucrose 5%, test substance 16 mg/l", "value": "−5", "unit": "%"}]}, {"smiles": "COc1ccc(OC(C)C(=O)O)cc1", "note": "(stereo not drawn) [Lactisole, 2-(4-methoxyphenoxy)propanoic acid, reference compound]", "values": [{"measurement": "Sweet taste impression (1-10) Sample (B)", "setting": "[1]; [5]", "value": "4.2 ± 1.4"}, {"measurement": "Change in sweet taste impression [%]", "setting": "[1]; [6]", "value": "−27", "unit": "%"}, {"measurement": "Influence on the sweet taste intensity (in the oral cavity)", "setting": "[4]", "value": "clear reduction in the sweet taste intensity"}]}]}
